Experimental findings from patent US20100267755A1, “PYRIMIDINE DERIVATIVES” (GLAXO GROUP LIMITED, priority 2001, published 2010) are described below.

Molecules are shown by their SMILES.

The target of one test is T1, microsomal h-COX2 (Homo sapiens, UniProt P35354).
T1 construct: made in house; host or cells: baculovirus infected SF9 cells
T1 sequence (P35354 18-604): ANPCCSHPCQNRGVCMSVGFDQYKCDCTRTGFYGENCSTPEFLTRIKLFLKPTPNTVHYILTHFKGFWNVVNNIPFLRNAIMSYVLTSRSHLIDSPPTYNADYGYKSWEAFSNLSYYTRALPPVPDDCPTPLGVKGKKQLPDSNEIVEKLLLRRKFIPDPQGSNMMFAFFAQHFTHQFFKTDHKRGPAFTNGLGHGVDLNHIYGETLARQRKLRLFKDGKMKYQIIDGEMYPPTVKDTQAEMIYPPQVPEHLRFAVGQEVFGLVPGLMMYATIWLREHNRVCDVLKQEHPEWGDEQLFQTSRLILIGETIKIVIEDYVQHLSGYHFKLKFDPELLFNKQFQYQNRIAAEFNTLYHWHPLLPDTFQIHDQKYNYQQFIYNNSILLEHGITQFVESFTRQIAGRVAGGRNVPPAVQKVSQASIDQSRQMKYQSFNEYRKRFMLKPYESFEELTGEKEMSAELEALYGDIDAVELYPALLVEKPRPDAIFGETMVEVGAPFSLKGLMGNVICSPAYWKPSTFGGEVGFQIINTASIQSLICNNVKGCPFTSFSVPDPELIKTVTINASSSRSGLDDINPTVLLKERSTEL
The test can be described thus: Inhibitory activity against microsomal h-COX2 (PGE2 by EIA). The test is classed as biochemical. Conditions: microsomal preparation from baculovirus infected SF9 cells; 0.1 μM arachidonic acid; read-out: COX-2 IC50. The procedure: Inhibitory activity against microsomal h-COX2 was assessed against a microsomal preparation from baculovirus infected SF9 cells. An aliquot of microsomal preparation was thawed slowly on ice and a 1/40,000 dilution prepared from it into the assay buffer (sterile water, degassed with argon containing 100 mM HEPES (pH 7.4), 10 mM EDTA (pH7.4), 1 mM phenol, 1 mM reduced glutathione, 20 mg/ml gelatin and 0.001 mM Hematin). Once diluted the enzyme solution was then sonicated for 5 seconds (Branson sonicator, setting 4, 1 cm tip) to ensure a homogeneous suspension. […] Plates were then mixed and incubated at room temperature for 1 hour. Following the incubation period, 40 μl of 0.5 μM arachidonic acid was added to each well to give a final concentration of 0.1 μM. Plates were then mixed and incubated for exactly 10 minutes (room temperature) prior to addition of 25 μl 1M HCl (hydrochloric acid) to each well to stop the reaction. 25 μl of 1M NaOH (sodium hydroxide) was then added to each well to neutralise the solution prior to determination of PGE2 levels by enzyme immunoassay (EIA).
One may read the IC50 as the concentration needed to halve the response being measured. In the case of `CCCCNc1nc(-c2ccc(S(C)(=O)=O)cc2)c(C)c(C(F)(F)F)n1` [Example 11], the IC50 came out at 6.3 µM.

Regarding `CCCNc1nc(-c2ccc(S(C)(=O)=O)cc2)c(C)c(C(F)(F)F)n1` [Example 8], the IC50 stood at 26.7 µM.

Turning to `Cc1c(-c2ccc(S(C)(=O)=O)cc2)nc(NC2CCCCC2)nc1C(F)(F)F` [Example 6], the IC50 worked out at 2.3 µM.

Regarding `Cc1c(-c2ccc(S(C)(=O)=O)cc2)nc(NCC(C)C)nc1C(F)(F)F` [Example 2, N-isobutyl-5-methyl-4-[4-(methylsulfonyl)phenyl]-6-(trifluoromethyl)pyrimidin-2-amine], the IC50 was determined as 6.6 µM.

As to `Cc1c(-c2ccc(S(C)(=O)=O)cc2)nc(NCC2CCOCC2)nc1C(F)(F)F` [Example 7], the IC50 was greater than 100 µM.

Take `Cc1c(-c2ccc(S(C)(=O)=O)cc2)nc(NCc2ccccc2)nc1C(F)(F)F` [Example 1, N-benzyl-5-methyl-4-[4-(methylsulfonyl)phenyl]-6-(trifluoromethyl)pyrimidin-2-amine]: the IC50 was found to be 1.3 µM.

For the compound `Cc1c(-c2ccc(S(C)(=O)=O)cc2)nc(NCCc2ccccn2)nc1C(F)(F)F` [Example 10], the IC50 stood at 71.2 µM.

Consider `Cc1c(-c2ccc(S(C)(=O)=O)cc2)nc(NCc2ccccn2)nc1C(F)(F)F` [Example 9], for which the IC50 is greater than 98.6 µM.

As to `Cc1c(-c2ccc(S(C)(=O)=O)cc2)nc(NCc2cccs2)nc1C(F)(F)F` [Example 4], the IC50 was 0.56 µM.

Turning to `Cc1ccc(CNc2nc(-c3ccc(S(C)(=O)=O)cc3)c(C)c(C(F)(F)F)n2)cc1` [Example 5], the IC50 is 15.3 µM.

`Cc1c(-c2ccc(S(C)(=O)=O)cc2)nc(NCc2ccccc2O)nc1C(F)(F)F` [Example 3]: the half-maximal inhibitory concentration (IC50) was 2.5 µM.

Still in this test, the particulars now being: read-out: COX-2% inhibition.
As usually defined, the inhibition is how much of the control response was suppressed. With `CCCCNc1nc(-c2ccc(S(C)(=O)=O)cc2)c(C)c(C(F)(F)F)n1` [Example 11], the inhibition at 10 µM is 43%.

Regarding `Cc1c(-c2ccc(S(C)(=O)=O)cc2)nc(NCc2ccccc2)nc1C(F)(F)F` [Example 1, N-benzyl-5-methyl-4-[4-(methylsulfonyl)phenyl]-6-(trifluoromethyl)pyrimidin-2-amine], the inhibition at 10 µM came out at 61%.
